# In patent US6900216B2, “Dihydroimidazo[2,1-b]thiazole and dihydro-5h-thiazolo[3,2-A]pyrimidines as antidepressant agents” (Knoll GmbH, priority 2000, dated 2005):
# Like-named read-outs stand apart in the source and are kept apart here.
# How the values were obtained:
# 5-HT1A receptors = biological target: T1, 5-HT1A receptors (Rattus norvegicus, UniProt P19327); test: 5-HT1A binding: inhibition of [3H]8-OH-DPAT binding to rat hippocampal membranes; conditions: for inhibition at 1 µM: read-out: 5-HT1A % displacement at 10^−6 M; for Ki: [3H]8-OH-DPAT 1 nM, rat hippocampal membranes, fit to data from three experiments
# T1 construct: Hippocampal tissue from the brains of male Sprague-Dawley rats; from tissue; host or cells: rat hippocampal membranes
# T1 sequence (P19327 1-422): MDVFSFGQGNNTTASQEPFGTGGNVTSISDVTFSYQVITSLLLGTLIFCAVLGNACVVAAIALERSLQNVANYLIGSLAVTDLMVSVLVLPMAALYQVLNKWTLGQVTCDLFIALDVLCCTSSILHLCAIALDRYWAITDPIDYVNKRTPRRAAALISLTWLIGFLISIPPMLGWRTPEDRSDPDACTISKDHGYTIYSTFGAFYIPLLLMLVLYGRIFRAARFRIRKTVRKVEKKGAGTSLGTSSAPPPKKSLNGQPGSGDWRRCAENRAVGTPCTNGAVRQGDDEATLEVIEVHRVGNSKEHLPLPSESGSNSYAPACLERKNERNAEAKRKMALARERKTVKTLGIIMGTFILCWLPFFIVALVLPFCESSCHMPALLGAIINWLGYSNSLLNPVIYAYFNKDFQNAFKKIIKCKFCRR
# Description: Hippocampal tissue from the brains of male Sprague-Dawley rats (Charles River; weight range 150-250 g) was homogenised in ice-cold 50 mM Tris-HCl buffer (pH 7.7 when measured at 25° C., 1:40 w/v) and centrifuged at 40,000 g at 4° C. for 10 minutes. The pellet was rehomogenised in the same buffer, incubated at 37° C. for 10 minutes and centrifuged at 40,000 g at 4° C. for 10 minutes. The final pellet was resuspended in 50 mM Tris-HCl buffer (pH 7.7) containing 4 mM CaCl2, 0.1% L-ascorbic acid and 10 μM pargyline hydrochloride (equivalent to 6.25 mg wet weight of tissue/ml) and used immediately in the binding assay.
# Membranes (400 μl; equivalent to 2.5 mg wet weight of tissue/tube) were incubated with 50 μl of [^3H]8-hydroxy-2-(dipropylamino)tetralin ([^3H]8-OH-DPAT) at a single concentration of 1 nM and 50 μl of distilled water (total binding) or 50 μl of test compound (at a single concentration of 10^−6 M or at 10 concentrations ranging from 10^−11-10^−3 M) or 50 μl of 5-HT (10 μM, non-specific binding) at 25° C. for 30 minutes. The incubation was terminated by rapid filtration under vacuum through Skatron 11734 filters using a Skatron Cell Harvester. Filters were washed with ice-cold 50 mM Tris-HCl buffer, pH 7.7 (at 25° C., wash setting 9,9,0). The scored filter paper discs were punched out into vials, scintillation fluid added and radioactivity determined by liquid scintillation counting.
# (§1) For each of these tests measuring the ability of compounds of Formula I to displace standard ligands from 5-HT1A receptors and 5-hydroxytryptamine (5-HT) and noradrenaline (NA) reuptake sites and muscarinic receptors in vitro, the percentage displacement of specific binding of tritiated ligand by 10^−6 M test compound was calculated in the following way.
# (§2) Firstly, specific binding of tritiated ligand in the absence (A) and presence (B) of test compound was determined:
# (§3) In the absence of compound: A(dpm)=Total binding (dpm)−Non-specific binding (dpm) In the presence of compound (10^−6 M): B(dpm)=Binding at 10^−6M (dpm)−Non-specific binding (dpm)
# (§4) The specific binding of tritiated ligand in the presence (B) of compound was then converted to a percentage of specific binding of tritiated ligand in the absence (A) of compound: % Specific binding at 10^−6 M=B(dpm)/A(dpm)×100
# (§5) The percentage displacement of specific binding of tritiated ligand by the test compound (10^−6 M) was then obtained by subtraction of the percentage specific binding in the presence of compound from the percentage specific binding in the absence of compound, which is taken as the maximum binding and so equals 100%:
# (§6) % Displacement at 10^−6 M=100−% Specific binding at 10^−6 M.
# (§7) In some cases, displacement curves were then produced for compounds which displaced ≧50% of specific binding of the tritiated ligand at 10^−6 M using a range of concentrations of the compound. The Ki was then calculated by simultaneous fitting using equations derived from the Feldman equations by robust non-linear regression to data from three experiments simultaneously (De Lean et al., 1978; Munson and Rodbard, 1980; Feldman, 1992). Munson P J and Rodbard D. Ligand: a versatile computerised approach for characterisation of ligand binding systems. Anal Biochem 1980; 107: 220. Feldman HA. Mathematical theory of complex ligand binding systems at equilibrium: some methods for parameter fitting. Anal Biochem 1992: 48, 317. De Lean A, Munson P J and Rodbard D. Simultaneous analysis of families of sigmoidal curves: application to bioassay, radioligand assay, and physiological dose-response curves. Am J Physiol 1978: 235 (2), E97-E102.
# (§8) The results obtained in the above tests for 5-HT1A binding and 5-HT and NA uptake and muscarinic binding for the final products of Examples 1-39 hereinafter are given in Table 1 below. Kis are in nM. % Figures are for % displacement at 10^−6 M for a single determination.
# 5-HT reuptake sites = biological target: T2, 5-HT reuptake sites (Rattus norvegicus, UniProt P31652); test: 5-HT uptake: displacement of [3H]citalopram from 5-HT reuptake sites, rat frontal cortical membranes; assay type: binding; conditions: for inhibition at 1 µM: 10^−6 M test compound, single determination, [3H]citalopram; for Ki: [3H]citalopram 1.3 nM, rat frontal cortical membranes, fit to data from three experiments
# T2 construct: Frontal cortical tissue from the brains of male Charles River rats; from tissue; host or cells: rat frontal cortical membranes
# Description: Frontal cortical tissue from the brains of male Charles River rats weighing 150-250 g was homogenised in ice-cold 50 mM Tris-HCl, pH 7.4 (when measured at 25° C.) containing 120 mM sodium chloride and 5 mM potassium chloride (Tris buffer; 1:30 w/v) and centrifuged at 40,000 g for 10 minutes. The supernatant was discarded and the pellet rehomogenised in Tris buffer, 1:60 w/v, and centrifuged at 40,000 g for 10 minutes. This step was repeated a further time. The final pellet was resuspended in 50 mM Tris-HCl, pH 7.4 containing 120 mM sodium chloride and 5 mM potassium chloride (equivalent to 3.125 mg wet weight of tissue/ml) and used immediately in the binding assay. All centrifugations were performed at 4° C.
# Membranes (400 μl; equivalent to 1.25 mg wet weight of tissue/tube) were incubated with 50 μl [^3H]citalopram at a single concentration of 1.3 nM and 50 μl of distilled water (total binding) or 50 μl of test compound (at a single concentration of 10^−6 M or at 10 concentrations ranging from 10^−11-10^−3 M) or 50 μl of paroxetine (0.5 μM; non-specific binding) for 1 h at 27° C. Membrane bound radioactivity was recovered by filtration under vacuum through Skatron 11734 filters presoaked in 0.5% PEI using a Skatron Cell Harvester. Filters were then washed in ice-cold 50 mM Tris-HCl buffer, pH 7.4 (at 25° C., wash setting 9,9,0). The scored filter paper discs were punched out into vials, scintillation fluid added and radioactivity determined by liquid scintillation counting.
# as §1, §2, §3, §4, §5, §6, §7, §8
# [1] = 10^−6 M test compound, single determination, [3H]8-OH-DPAT
# T2 sequence (P31652 whole entry): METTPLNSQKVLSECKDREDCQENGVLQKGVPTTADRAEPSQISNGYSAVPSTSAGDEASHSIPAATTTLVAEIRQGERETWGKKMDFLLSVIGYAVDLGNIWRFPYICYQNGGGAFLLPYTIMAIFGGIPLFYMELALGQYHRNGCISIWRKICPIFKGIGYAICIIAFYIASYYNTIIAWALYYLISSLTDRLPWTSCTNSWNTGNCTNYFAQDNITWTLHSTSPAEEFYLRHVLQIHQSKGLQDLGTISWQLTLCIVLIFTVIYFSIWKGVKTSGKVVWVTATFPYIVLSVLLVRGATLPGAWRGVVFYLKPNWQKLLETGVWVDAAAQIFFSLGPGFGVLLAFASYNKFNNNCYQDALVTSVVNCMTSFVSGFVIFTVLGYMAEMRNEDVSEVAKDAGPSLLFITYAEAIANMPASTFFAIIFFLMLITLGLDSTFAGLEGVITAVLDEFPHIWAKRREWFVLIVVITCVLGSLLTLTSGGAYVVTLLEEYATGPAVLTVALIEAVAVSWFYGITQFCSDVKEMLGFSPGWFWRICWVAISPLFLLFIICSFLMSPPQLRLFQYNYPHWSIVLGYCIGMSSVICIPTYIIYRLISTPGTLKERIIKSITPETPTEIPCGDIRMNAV
Ki (5-HT1A receptors) [nM],Ki (5-HT reuptake sites) [nM],inhibition at 1 µM (5-HT1A receptors; [1]) [%],Structure (SMILES),inhibition at 1 µM (5-HT1A receptors) [%],inhibition at 1 µM (5-HT reuptake sites) [%]
,,,"C=CC1=C(c2cccc3sccc23)N2CCN=C2S1.Cl [Example 39, 3-(benzo[b]thiophen-4-yl)-2-vinyl-5,6-dihydroimidazo[2,1-b]thiazole hydrochloride]",85,70
2.1,213,,"Br.CC1=C(c2ccc3ccsc3c2)N2CCN=C2S1 [Example 37, 3-(benzo[b]thiophen-6-yl)-2-methyl-5,6-dihydroimidazo[2,1-b]thiazole hydrobromide]",,
,,97,"OCC1=C(c2cc3ccccc3s2)N2CCN=C2S1 [Example 15, [3-(benzo[b]thiophen-2-yl)-5,6-dihydroimidazo[2,1-b]thiazol-2-yl]methanol]",,75
,,,"CC1=C(c2cccc3sc(C)cc23)N2CCN=C2S1.Cl [Example 33, 2-methyl-3-(2-methylbenzo[b]thiophen-4-yl)-5,6-dihydroimidazo[2,1-b]thiazole hydrochloride]",99,62
,,,"Br.CC1=C(c2cc3cccc(Cl)c3s2)N2CCN=C2S1 [Example 20, 3-(7-chlorobenzo[b]thiophen-2-yl)-2-methyl-5,6-dihydroimidazo[2,1-b]thiazole hydrobromide]",98,73
15,387,,"CC1=C(c2cccc3sccc23)N2CCN=C2S1.Cl [Example 9, 3-(benzo[b]thiophen-4-yl)-2-methyl-5,6-dihydroimidazo[2,1-b]thiazole hydrochloride]",,
134,39,,"CSC1=C(c2cc3ccccc3s2)N2CCN=C2S1 [Example 19, 3-(benzo[b]thiophen-2-yl)-2-(methylthio)-5,6-dihydroimidazo[2,1-b]thiazole]",,
,,66,"CSC1=C(c2ccc3sccc3c2)N2CCN=C2S1 [Example 30, 3-(benzo[b]thiophen-5-yl)-2-(methylthio)-5,6-dihydroimidazo[2,1-b]thiazole]",,95
2.2,36,,"OCC1=C(c2cc3c(Cl)cccc3s2)N2CCN=C2S1 [Example 4, [3-(4-chlorobenzo[b]thiophen-2-yl)-5,6-dihydroimidazo[2,1-b]thiazol-2-yl]methanol]",,
,,,"Cc1cccc2sc(C3=CSC4=NCCN34)cc12.Cl [Example 14, 3-(4-methylbenzo[b]thiophen-2-yl)-5,6-dihydroimidazo[2,1-b]thiazole hydrochloride]",64,96
5.9,29.3,,"Br.CC1=C(c2cc3c(Cl)cccc3s2)N2CCN=C2S1 [Example 10, 3-(4-chlorobenzo[b]thiophen-2-yl)-2-methyl-5,6-dihydroimidazo[2,1-b]thiazole hydrobromide]",,
,,,"Br.Clc1cccc2sc(C3=CSC4=NCCN34)cc12 [Example 1, 3-(4-chlorobenzo[b]thiophen-2-yl)-5,6-dihydroimidazo[2,1-b]thiazole hydrobromide]",60,97
,,,"Br.CCC1=C(c2cc3c(Cl)cccc3s2)N2CCN=C2S1 [Example 18, 3-(4-chlorobenzo[b]thiophen-2-yl)-2-ethyl-5,6-dihydroimidazo[2,1-b]thiazole hydrobromide]",96,96

Structure (SMILES),Ki (5-HT1A receptors) [nM],Ki (5-HT reuptake sites) [nM],inhibition at 1 µM (5-HT1A receptors; [1]) [%],inhibition at 1 µM (5-HT1A receptors) [%],inhibition at 1 µM (5-HT reuptake sites) [%]
"CCC1=C(c2cccc3sccc23)N2CCN=C2S1.O=C(O)/C=C/C(=O)O [Example 25, 3-(benzo[b]thiophen-4-yl)-2-ethyl-5,6-dihydroimidazo[2,1-b]thiazole fumarate]",,169,,92,
"CSC1=C(c2cccc3sccc23)N2CCN=C2S1.O=C(O)/C=C/C(=O)O [Example 32, 3-(benzo[b]thiophen-4-yl)-2-(methylthio)-5,6-dihydroimidazo[2,1-b]thiazole fumarate]",93,223,,,
"CCC1=C(c2ccc3sccc3c2)N2CCN=C2S1.O=C(O)/C=C/C(=O)O [Example 31, 3-(benzo[b]thiophen-5-yl)-2-ethyl-5,6-dihydroimidazo[2,1-b]thiazole fumarate]",102,35,,,
"Br.CCC1=C(c2cccc3sccc23)N2CCN=C2S1 [Example 13, 3-(benzo[b]thiophen-4-yl)-2-ethyl-5,6-dihydroimidazo[2,1-b]thiazole hydrobromide]",15.5,84,,,
